Laboratory results reported in patent publication US20240158446A1, “CYCLIC COMPOUND HAVING SELECTIVE INHIBITORY ACTION ON KRAS OVER HRAS AND NRAS” (CHUGAI SEIYAKU KABUSHIKI KAISHA, priority 2021, published 2024).
Where a SMILES comes first, the peptide text is derived from it. Bridges are numbered along the chain shown (N, C = ends). [ ]: non-standard residue; d: D form. The star is where a group is joined. hPhe(3-Cl-4-CF3) = N[C@@H](CCc1ccc(C(F)(F)F)c(Cl)c1)C(=O)O; NPrPhe(4-CF3) = CCCN[C@@H](Cc1ccc(C(F)(F)F)cc1)C(=O)O; NMeGly(cPent) = CN[C@H](C(=O)O)C1CCCC1; Pro(4,4-F2) = O=C(O)[C@@H]1CC(F)(F)CN1; Hyp = O=C(O)[C@@H]1C[C@@H](O)CN1; NMeL = CN[C@@H](CC(C)C)C(=O)O; Morpholide = C1CN(*)CCO1; NMeA = CN[C@@H](C)C(=O)O; Ac5c = NC1(C(=O)O)CCCC1; Aze = O=C(O)[C@@H]1CCN1; Ac4c = NC1(C(=O)O)CCC1; Sar = CNCC(=O)O

Key:
[1] = molecular target: GDP-bound HRAS wild-type protein (Homo sapiens, UniProt P01112); test: Binding to HRAS by surface plasmon resonance (SPR), Single Cycle Kinetics; conditions: SPR, GDP-bound HRAS wild-type protein vs GDP-bound KRAS wild-type protein
Chain of GDP-bound HRAS wild-type protein (P01112 whole entry): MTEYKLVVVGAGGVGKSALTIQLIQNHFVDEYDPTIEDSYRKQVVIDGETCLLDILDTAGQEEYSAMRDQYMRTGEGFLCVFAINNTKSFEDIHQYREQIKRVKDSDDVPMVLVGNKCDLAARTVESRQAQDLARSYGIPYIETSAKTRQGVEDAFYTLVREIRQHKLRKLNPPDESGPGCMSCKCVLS

[2] = molecular target: GDP-bound NRAS wild-type protein (Homo sapiens, UniProt P01111); test: Binding to NRAS by surface plasmon resonance (SPR), Single Cycle Kinetics; conditions: SPR, GDP-bound NRAS wild-type protein vs GDP-bound KRAS wild-type protein
Chain of GDP-bound NRAS wild-type protein (P01111 whole entry): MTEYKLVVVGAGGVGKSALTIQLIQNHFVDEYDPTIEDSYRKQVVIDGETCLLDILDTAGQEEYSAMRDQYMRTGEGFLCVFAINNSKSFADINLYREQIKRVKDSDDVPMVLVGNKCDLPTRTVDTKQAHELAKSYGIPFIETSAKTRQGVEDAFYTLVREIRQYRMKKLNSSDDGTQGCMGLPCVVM

[3] = molecular target: GDP-bound KRAS wild-type protein (Homo sapiens, UniProt P01116); test: Binding to KRAS by surface plasmon resonance (SPR), Single Cycle Kinetics; conditions: SPR Single Cycle Kinetics, GDP-bound KRAS wild-type protein, 1:1 binding model; read-out: KRAS KD
Chain of GDP-bound KRAS wild-type protein (P01116 whole entry): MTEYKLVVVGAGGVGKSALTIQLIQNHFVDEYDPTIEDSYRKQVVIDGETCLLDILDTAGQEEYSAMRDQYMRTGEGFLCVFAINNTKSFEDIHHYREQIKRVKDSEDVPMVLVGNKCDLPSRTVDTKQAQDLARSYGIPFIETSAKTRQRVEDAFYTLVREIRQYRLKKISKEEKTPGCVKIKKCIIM

| SMILES | HRAS/KRAS (ratio of KD value for HRAS to KD value for KRAS) [1] | NRAS/KRAS (ratio of KD value for NRAS to KD value for KRAS) [2] | Kd [3] |
| --- | --- | --- | --- |
| CCCN1C(=O)[C@@H]2CCN2C(=O)[C@H](C)N(C)C(=O)[C@H]([C@@H](C)CC)NC(=O)[C@H](CC(C)C)N(C)C(=O)C[C@@H](C(=O)N2CCOCC2)NC(=O)[C@H](C2CCCC2)N(C)C(=O)C2(CCC2)NC(=O)[C@@H]2C[C@@H](OCC)CN2C(=O)[C@H](CCc2ccc(C(F)(F)F)c(Cl)c2)NC(=O)CN(C)C(=O)[C@@H]1Cc1ccc(C(F)(F)F)cc1 [PP0348] ([NMeL]I[NMeA][Aze][NPrPhe(4-CF3)][Sar][hPhe(3-Cl-4-CF3)][Hyp](Et)[Ac4c][NMeGly(cPent)]D-Morpholide; lactam N-11) | B (a compound having 3 or more and less than 10 is denoted as B) | C (A compound having a KD ratio of 0.1 or more and less than 3 is denoted as C) | 0.38 nM |
| CCCN1C(=O)[C@@H]2CCN2C(=O)CN(C)C(=O)[C@H]([C@@H](C)CC)NC(=O)[C@H](CC(C)C)N(C)C(=O)C[C@@H](C(=O)N2CCOCC2)NC(=O)[C@H](C2CCCC2)N(C)C(=O)C2(CCCC2)NC(=O)[C@@H]2CCCN2C(=O)[C@H](CCc2ccc(C(F)(F)F)c(Cl)c2)NC(=O)CN(C)C(=O)[C@@H]1Cc1ccc(C(F)(F)F)cc1 [PP0349] ([NMeL]I[Sar][Aze][NPrPhe(4-CF3)][Sar][hPhe(3-Cl-4-CF3)]P[Ac5c][NMeGly(cPent)]D-Morpholide; lactam N-11) | B (a compound having 3 or more and less than 10 is denoted as B) | C (A compound having a KD ratio of 0.1 or more and less than 3 is denoted as C) | 0.73 nM |
| CCCN1C(=O)[C@@H]2CCN2C(=O)CN(C)C(=O)[C@H]([C@@H](C)CC)NC(=O)[C@H](CC(C)C)N(C)C(=O)C[C@@H](C(=O)N2CCOCC2)NC(=O)[C@H](C2CCCC2)N(C)C(=O)C2(CCC2)NC(=O)[C@@H]2CCCN2C(=O)[C@H](CCc2ccc(C(F)(F)F)c(Cl)c2)NC(=O)CN(C)C(=O)[C@@H]1Cc1ccc(C(F)(F)F)cc1 [PP0350] ([NMeL]I[Sar][Aze][NPrPhe(4-CF3)][Sar][hPhe(3-Cl-4-CF3)]P[Ac4c][NMeGly(cPent)]D-Morpholide; lactam N-11) | B (a compound having 3 or more and less than 10 is denoted as B) | C (A compound having a KD ratio of 0.1 or more and less than 3 is denoted as C) | 1.1 nM |
| CCCN1C(=O)[C@@H]2CCN2C(=O)CN(C)C(=O)[C@H]([C@@H](C)CC)NC(=O)[C@H](CC(C)C)N(C)C(=O)C[C@@H](C(=O)N2CCOCC2)NC(=O)[C@H](C2CCCC2)N(C)C(=O)C2(CCCC2)NC(=O)[C@@H]2CC(F)(F)CN2C(=O)[C@H](CCc2ccc(C(F)(F)F)c(Cl)c2)NC(=O)CN(C)C(=O)[C@@H]1Cc1ccc(C(F)(F)F)cc1 [PP0351] ([NMeL]I[Sar][Aze][NPrPhe(4-CF3)][Sar][hPhe(3-Cl-4-CF3)][Pro(4,4-F2)][Ac5c][NMeGly(cPent)]D-Morpholide; lactam N-11) | B (a compound having 3 or more and less than 10 is denoted as B) | C (A compound having a KD ratio of 0.1 or more and less than 3 is denoted as C) | 1.1 nM |
| CCCN1C(=O)[C@@H]2CCN2C(=O)CN(C)C(=O)[C@H]([C@@H](C)CC)NC(=O)[C@H](CC(C)C)N(C)C(=O)C[C@@H](C(=O)N2CCOCC2)NC(=O)[C@H](C2CCCC2)N(C)C(=O)C2(CCC2)NC(=O)[C@@H]2CC(F)(F)CN2C(=O)[C@H](CCc2ccc(C(F)(F)F)c(Cl)c2)NC(=O)CN(C)C(=O)[C@@H]1Cc1ccc(C(F)(F)F)cc1 [PP0352] ([NMeL]I[Sar][Aze][NPrPhe(4-CF3)][Sar][hPhe(3-Cl-4-CF3)][Pro(4,4-F2)][Ac4c][NMeGly(cPent)]D-Morpholide; lactam N-11) | B (a compound having 3 or more and less than 10 is denoted as B) | C (A compound having a KD ratio of 0.1 or more and less than 3 is denoted as C) | 0.82 nM |
| CCCN1C(=O)[C@@H]2CCN2C(=O)CN(C)C(=O)[C@H]([C@@H](C)CC)NC(=O)[C@H](CC(C)C)N(C)C(=O)C[C@@H](C(=O)N2CCOCC2)NC(=O)[C@H](C2CCCC2)N(C)C(=O)C2(CCCC2)NC(=O)[C@@H]2C[C@@H](OCC)CN2C(=O)[C@H](CCc2ccc(C(F)(F)F)c(Cl)c2)NC(=O)CN(C)C(=O)[C@@H]1Cc1ccc(C(F)(F)F)cc1 [PP0353] ([NMeL]I[Sar][Aze][NPrPhe(4-CF3)][Sar][hPhe(3-Cl-4-CF3)][Hyp](Et)[Ac5c][NMeGly(cPent)]D-Morpholide; lactam N-11) | B (a compound having 3 or more and less than 10 is denoted as B) | C (A compound having a KD ratio of 0.1 or more and less than 3 is denoted as C) | 0.47 nM |
| CCCN1C(=O)[C@@H]2CCN2C(=O)CN(C)C(=O)[C@H]([C@@H](C)CC)NC(=O)[C@H](CC(C)C)N(C)C(=O)C[C@@H](C(=O)N2CCOCC2)NC(=O)[C@H](C2CCCC2)N(C)C(=O)C2(CCC2)NC(=O)[C@@H]2C[C@@H](OCC)CN2C(=O)[C@H](CCc2ccc(C(F)(F)F)c(Cl)c2)NC(=O)CN(C)C(=O)[C@@H]1Cc1ccc(C(F)(F)F)cc1 [PP0354] ([NMeL]I[Sar][Aze][NPrPhe(4-CF3)][Sar][hPhe(3-Cl-4-CF3)][Hyp](Et)[Ac4c][NMeGly(cPent)]D-Morpholide; lactam N-11) | B (a compound having 3 or more and less than 10 is denoted as B) | C (A compound having a KD ratio of 0.1 or more and less than 3 is denoted as C) | 0.44 nM |
| CCCN1C(=O)CN(C)C(=O)CN(C)C(=O)[C@H]([C@@H](C)CC)NC(=O)[C@H](CC(C)C)N(C)C(=O)C[C@@H](C(=O)N(C)C)NC(=O)[C@H](C2CCCC2)N(C)C(=O)C2(CCCC2)NC(=O)[C@@H]2CCCN2C(=O)[C@H](CCc2ccc(C(F)(F)F)c(Cl)c2)NC(=O)CN(C)C(=O)[C@@H]1Cc1ccc(C(F)(F)F)cc1 [PP0355] ([NMeL]I[Sar][Sar][NPrPhe(4-CF3)][Sar][hPhe(3-Cl-4-CF3)]P[Ac5c][NMeGly(cPent)]D-NMe2; lactam N-11) | B (a compound having 3 or more and less than 10 is denoted as B) | B (a compound having 3 or more and less than 10 is denoted as B) | 0.33 nM |
| CCCN1C(=O)CN(C)C(=O)CN(C)C(=O)[C@H]([C@@H](C)CC)NC(=O)[C@H](CC(C)C)N(C)C(=O)C[C@@H](C(=O)N(C)C)NC(=O)[C@H](C2CCCC2)N(C)C(=O)C2(CCC2)NC(=O)[C@@H]2CCCN2C(=O)[C@H](CCc2ccc(C(F)(F)F)c(Cl)c2)NC(=O)CN(C)C(=O)[C@@H]1Cc1ccc(C(F)(F)F)cc1 [PP0356] ([NMeL]I[Sar][Sar][NPrPhe(4-CF3)][Sar][hPhe(3-Cl-4-CF3)]P[Ac4c][NMeGly(cPent)]D-NMe2; lactam N-11) | B (a compound having 3 or more and less than 10 is denoted as B) | B (a compound having 3 or more and less than 10 is denoted as B) | 0.49 nM |
| CCCN1C(=O)CN(C)C(=O)CN(C)C(=O)[C@H]([C@@H](C)CC)NC(=O)[C@H](CC(C)C)N(C)C(=O)C[C@@H](C(=O)N(C)C)NC(=O)[C@H](C2CCCC2)N(C)C(=O)C2(CCCC2)NC(=O)[C@@H]2CC(F)(F)CN2C(=O)[C@H](CCc2ccc(C(F)(F)F)c(Cl)c2)NC(=O)CN(C)C(=O)[C@@H]1Cc1ccc(C(F)(F)F)cc1 [PP0357] ([NMeL]I[Sar][Sar][NPrPhe(4-CF3)][Sar][hPhe(3-Cl-4-CF3)][Pro(4,4-F2)][Ac5c][NMeGly(cPent)]D-NMe2; lactam N-11) | B (a compound having 3 or more and less than 10 is denoted as B) | B (a compound having 3 or more and less than 10 is denoted as B) | 0.4 nM |
| CCCN1C(=O)CN(C)C(=O)CN(C)C(=O)[C@H]([C@@H](C)CC)NC(=O)[C@H](CC(C)C)N(C)C(=O)C[C@@H](C(=O)N(C)C)NC(=O)[C@H](C2CCCC2)N(C)C(=O)C2(CCC2)NC(=O)[C@@H]2CC(F)(F)CN2C(=O)[C@H](CCc2ccc(C(F)(F)F)c(Cl)c2)NC(=O)CN(C)C(=O)[C@@H]1Cc1ccc(C(F)(F)F)cc1 [PP0358] ([NMeL]I[Sar][Sar][NPrPhe(4-CF3)][Sar][hPhe(3-Cl-4-CF3)][Pro(4,4-F2)][Ac4c][NMeGly(cPent)]D-NMe2; lactam N-11) | C (A compound having a KD ratio of 0.1 or more and less than 3 is denoted as C) | B (a compound having 3 or more and less than 10 is denoted as B) | 0.33 nM |
| CCCN1C(=O)CN(C)C(=O)CN(C)C(=O)[C@H]([C@@H](C)CC)NC(=O)[C@H](CC(C)C)N(C)C(=O)C[C@@H](C(=O)N(C)C)NC(=O)[C@H](C2CCCC2)N(C)C(=O)C2(CCCC2)NC(=O)[C@@H]2C[C@@H](OCC)CN2C(=O)[C@H](CCc2ccc(C(F)(F)F)c(Cl)c2)NC(=O)CN(C)C(=O)[C@@H]1Cc1ccc(C(F)(F)F)cc1 [PP0359] ([NMeL]I[Sar][Sar][NPrPhe(4-CF3)][Sar][hPhe(3-Cl-4-CF3)][Hyp](Et)[Ac5c][NMeGly(cPent)]D-NMe2; lactam N-11) | B (a compound having 3 or more and less than 10 is denoted as B) | B (a compound having 3 or more and less than 10 is denoted as B) | 0.14 nM |
